Measurements taken from the NIST ThermoML archive (doi:10.1021/je0501843).
± gives the expanded uncertainty stated by the source.

Test: wn = mass fraction of the nth substance listed
Details: Fluid (supercritical or subcritical phases), isochoric method, w1 = 0.5001

FC(F)C(F)(F)F [pentafluoroethane] + FCF
Details | mass density [kg/m3]
301 K, 4414 kPa | 1071.2 ± 2.2
302 K, 4977 kPa | 1071 ± 2.2
303 K, 5537 kPa | 1070.9 ± 2.2
303 K, 5540 kPa | 1070.9 ± 2.2
304 K, 6101 kPa | 1070.8 ± 2.2
304 K, 6103 kPa | 1070.8 ± 2.2
305 K, 6663 kPa | 1070.6 ± 2.2
306 K, 7227 kPa | 1070.5 ± 2.2
306 K, 7228 kPa | 1070.5 ± 2.2
307 K, 7791 kPa | 1070.4 ± 2.2
307 K, 7792 kPa | 1070.4 ± 2.2
308 K, 8356 kPa | 1070.2 ± 2.2
308 K, 8357 kPa | 1070.2 ± 2.2
309 K, 8918 kPa | 1070.1 ± 2.2
310 K, 9482 kPa | 1070 ± 2.2
310 K, 9484 kPa | 1070 ± 2.2
311 K, 10048 kPa | 1069.8 ± 2.2
311 K, 10049 kPa | 1069.8 ± 2.2
312 K, 10614 kPa | 1069.7 ± 2.2
312 K, 10615 kPa | 1069.7 ± 2.2
313 K, 11178 kPa | 1069.6 ± 2.2
313 K, 11179 kPa | 1069.6 ± 2.2
314 K, 11741 kPa | 1069.4 ± 2.2
314 K, 11743 kPa | 1069.4 ± 2.2
315 K, 12309 kPa | 1069.3 ± 2.2
316 K, 12875 kPa | 1069.2 ± 2.2
316 K, 12877 kPa | 1069.2 ± 2.2
317 K, 13440 kPa | 1069 ± 2.2
318 K, 14003 kPa | 1068.9 ± 2.2
318 K, 14005 kPa | 1068.9 ± 2.2
319 K, 14570 kPa | 1068.8 ± 2.2
319 K, 14571 kPa | 1068.8 ± 2.2
320 K, 15135 kPa | 1068.6 ± 2.2
320 K, 15137 kPa | 1068.6 ± 2.2
321 K, 15700 kPa | 1068.5 ± 2.2
321 K, 15701 kPa | 1068.5 ± 2.2
322 K, 16263 kPa | 1068.4 ± 2.2
322 K, 16265 kPa | 1068.4 ± 2.2
323 K, 16830 kPa | 1068.2 ± 2.2
324 K, 17394 kPa | 1068.1 ± 2.2
324 K, 17396 kPa | 1068.1 ± 2.2
325 K, 5448 kPa | 946.2 ± 2
325 K, 17959 kPa | 1068 ± 2.2
325 K, 17961 kPa | 1068 ± 2.2
326 K, 5835 kPa | 946.1 ± 1.9
326 K, 5836 kPa | 946.1 ± 1.9
326 K, 18524 kPa | 1067.8 ± 2.2
326 K, 18525 kPa | 1067.8 ± 2.2
327 K, 6224 kPa | 946 ± 1.9
327 K, 6225 kPa | 946 ± 1.9
327 K, 19088 kPa | 1067.7 ± 2.2
327 K, 19090 kPa | 1067.7 ± 2.2
328 K, 6615 kPa | 945.9 ± 1.9
328 K, 6616 kPa | 945.9 ± 1.9
328 K, 19652 kPa | 1067.6 ± 2.2
328 K, 19655 kPa | 1067.6 ± 2.2
329 K, 7006 kPa | 945.8 ± 1.9
329 K, 7007 kPa | 945.8 ± 1.9
330 K, 7397 kPa | 945.7 ± 1.9
330 K, 7399 kPa | 945.7 ± 1.9
331 K, 7788 kPa | 945.6 ± 1.9
331 K, 7790 kPa | 945.6 ± 1.9
332 K, 8183 kPa | 945.5 ± 1.9
332 K, 8184 kPa | 945.5 ± 1.9
333 K, 8579 kPa | 945.4 ± 1.9
334 K, 8970 kPa | 945.4 ± 1.9
334 K, 8971 kPa | 945.4 ± 1.9
335 K, 9364 kPa | 945.3 ± 1.9
336 K, 9759 kPa | 945.2 ± 1.9
337 K, 10156 kPa | 945.1 ± 1.9
337 K, 10157 kPa | 945.1 ± 1.9
338 K, 6179 kPa | 859.9 ± 1.8
338 K, 10552 kPa | 945 ± 1.9
338 K, 10553 kPa | 945 ± 1.9
339 K, 6478 kPa | 859.9 ± 1.8
339 K, 10948 kPa | 944.9 ± 1.9
340 K, 6782 kPa | 859.8 ± 1.8
340 K, 11344 kPa | 944.8 ± 1.9
340 K, 11346 kPa | 944.8 ± 1.9
341 K, 7089 kPa | 859.7 ± 1.7
341 K, 11743 kPa | 944.7 ± 1.9
341 K, 11745 kPa | 944.7 ± 1.9
342 K, 7389 kPa | 859.6 ± 1.8
342 K, 12139 kPa | 944.6 ± 1.9
342 K, 12142 kPa | 944.6 ± 1.9
343 K, 7693 kPa | 859.6 ± 1.8
343 K, 12536 kPa | 944.5 ± 1.9
343 K, 12538 kPa | 944.5 ± 1.9
344 K, 7998 kPa | 859.5 ± 1.7
344 K, 12935 kPa | 944.4 ± 1.9
344 K, 12936 kPa | 944.4 ± 1.9
345 K, 8306 kPa | 859.4 ± 1.7
345 K, 13334 kPa | 944.3 ± 1.9
346 K, 8612 kPa | 859.3 ± 1.7
346 K, 13733 kPa | 944.2 ± 1.9
347 K, 6281 kPa | 761.1 ± 1.6
347 K, 8917 kPa | 859.3 ± 1.7
347 K, 14131 kPa | 944.1 ± 1.9
